Ends that are not written are not given here. Peptide text beside a SMILES is read from it.
Legend:
rat intestinal DPP-IV = target: T1, rat intestinal DPP-IV (Rattus norvegicus, UniProt P14740); assay: Dipeptidyl peptidase IV (DPP-IV) assay; assay type: biochemical; details: synthetic peptides
T1 construct: 10 μL of rat intestinal DPP-IV (0.1 U/mL in the assay); from tissue; host or cells: rat intestine
Procedure: DPP-IV assay was performed as described in Tagliazucchi et al.. Briefly, in a 96-well plate, 10 μL of rat intestinal DPP-IV (0.1 U/mL in the assay) were mixed with 145 μL of Tris-HCl buffer (pH 7.0; 0.1 mol/L) and 40 μL of different concentrations of water-soluble low-molecular weight peptide extracts. After 20 min of incubation at 37 °C, the reaction was started by the addition of 5 μL of glycine-proline-p-nitroanilide (6.4 mmol/L). The amount of released p-nitroanilide was determined after 20 min of incubation at 37 °C by reading at 405 nm in a microplate reader. Results were expressed as IC50 as reported above.
(§1) Selected peptides were then synthesized (Bio-Fab Research, Rome, Italy) and tested for their inhibitory activity against DPP-IV, α-glucosidase, and α-amylase. The assays were carried out as reported in Section 2.3. The results were expressed as IC50 values.

yeast α-glucosidase = yeast α-glucosidase (Saccharomyces cerevisiae, UniProt P53341); assay: α-Glucosidase assay; assay type: biochemical; details: for inhibition at 1000 µM: read-out: percentage of inhibition of α-glucosidase; for IC50: synthetic peptides, n.a. = not active
yeast α-glucosidase, sequence (P53341 whole entry): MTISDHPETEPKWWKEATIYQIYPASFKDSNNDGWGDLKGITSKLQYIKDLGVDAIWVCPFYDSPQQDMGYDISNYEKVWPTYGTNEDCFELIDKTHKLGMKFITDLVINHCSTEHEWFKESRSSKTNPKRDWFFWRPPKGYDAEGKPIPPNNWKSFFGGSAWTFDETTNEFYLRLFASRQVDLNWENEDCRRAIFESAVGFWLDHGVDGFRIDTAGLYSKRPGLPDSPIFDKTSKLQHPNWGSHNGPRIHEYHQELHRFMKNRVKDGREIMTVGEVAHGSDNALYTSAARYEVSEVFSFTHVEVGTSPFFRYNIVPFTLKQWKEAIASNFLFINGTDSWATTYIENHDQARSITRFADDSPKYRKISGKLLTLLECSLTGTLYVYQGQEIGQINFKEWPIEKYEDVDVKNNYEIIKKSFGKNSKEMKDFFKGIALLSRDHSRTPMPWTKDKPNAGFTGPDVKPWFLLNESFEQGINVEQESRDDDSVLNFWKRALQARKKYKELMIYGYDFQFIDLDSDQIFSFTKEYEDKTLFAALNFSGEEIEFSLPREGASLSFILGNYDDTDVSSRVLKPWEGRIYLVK
Procedure: α-Glucosidase assay was performed as reported in Bellesia et al., adapted to a microplate reader. The reaction was performed by mixing 66.7 μL of potassium phosphate buffer (67 mmol/L, pH 6.8), 3.3 μL of glutathione 3 mmol/L, 20 μL of different concentrations of water-soluble low-molecular weight peptide extracts, and 5 μL of yeast α-glucosidase 0.2 U/mL. After 20 min of incubation at 37 °C, the reaction was started by the addition of 5 μL of p-nitrophenyl-glucose 5 mmol/L. After a further 20 min of incubation at 37 °C, the reaction was stopped by the addition of 150 μL of Na2CO3 100 mmol/L. The amount of released p-nitrophenol was determined by reading at 405 nm with a microplate reader. Results were expressed as IC50 as reported above.
as §1

[1] = system: angiotensin converting enzyme; details: cited from earlier work; for Bioactivity: ACE-inhibition: ref BIOPEP database and Milk Bioactive Peptides Database; for IC50 values against ACE: ref [47],[48],[49]
[2] = design: method as in BIOPEP database and Milk Bioactive Peptides Database; details: ref BIOPEP database and Milk Bioactive Peptides Database; cited from earlier work
[3] = design: method as in BIOPEP database and Milk Bioactive Peptides Database; details: ref BIOPEP database and Milk Bioactive Peptides Database; cited from earlier work; remark: listed apart in the source
DPP-IV = details: cited from earlier work; for Bioactivity: DPP-IV-inhibition: ref BIOPEP database and Milk Bioactive Peptides Database; for IC50: ref [41],[51],[52], read-out: IC50 DPP-IV, previously reported
[4] = design: method as in PMID 16899668, doi:10.1016/j.foodres.2015.12.007; details: spontaneously hypertensive rats; ref [48],[49]; cited from earlier work
[5] = design: method as in BIOPEP database and Milk Bioactive Peptides Database; details: ref BIOPEP database and Milk Bioactive Peptides Database; cited from earlier work; remark: listed apart in the source
[6] = design: method as in BIOPEP database and Milk Bioactive Peptides Database; details: ref BIOPEP database and Milk Bioactive Peptides Database; cited from earlier work; remark: listed apart in the source
α-glucosidase = details: cited from earlier work

T1 sequence (P14740 whole entry): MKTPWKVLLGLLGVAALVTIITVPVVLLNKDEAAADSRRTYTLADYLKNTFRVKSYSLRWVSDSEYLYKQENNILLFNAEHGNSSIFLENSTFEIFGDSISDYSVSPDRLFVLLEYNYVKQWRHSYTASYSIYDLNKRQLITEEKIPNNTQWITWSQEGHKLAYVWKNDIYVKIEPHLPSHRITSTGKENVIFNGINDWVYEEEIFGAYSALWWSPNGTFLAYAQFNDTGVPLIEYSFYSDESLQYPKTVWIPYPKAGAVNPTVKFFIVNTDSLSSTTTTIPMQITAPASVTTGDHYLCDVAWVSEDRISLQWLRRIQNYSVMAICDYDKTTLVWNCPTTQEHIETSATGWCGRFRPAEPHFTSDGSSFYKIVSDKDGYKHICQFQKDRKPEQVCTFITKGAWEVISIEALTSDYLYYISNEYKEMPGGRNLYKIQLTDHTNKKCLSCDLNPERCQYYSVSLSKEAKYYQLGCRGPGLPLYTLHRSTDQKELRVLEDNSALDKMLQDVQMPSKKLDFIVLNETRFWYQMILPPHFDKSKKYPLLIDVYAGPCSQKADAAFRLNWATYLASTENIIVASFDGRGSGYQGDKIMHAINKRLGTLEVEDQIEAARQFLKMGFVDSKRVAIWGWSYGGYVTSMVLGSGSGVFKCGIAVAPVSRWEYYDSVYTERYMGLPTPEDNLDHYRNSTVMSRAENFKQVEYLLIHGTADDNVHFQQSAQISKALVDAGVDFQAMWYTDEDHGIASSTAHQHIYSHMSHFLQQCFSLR

## CC(C)C[C@H](N)C(=O)N1CCC[C@H]1C(=O)N1CCC[C@H]1C(=O)N[C@H](C(=O)O)[C@@H](C)O [LPPT] (H-LPPT-OH)
Rat intestinal DPP-IV
  IC50: 495.3 ± 3.6 µM

## O=C(O)[C@H](Cc1ccccc1)NC(=O)[C@@H]1CCCN1C(=O)[C@@H]1CCCN1 [PPF] (H-Pro-Pro-Phe-OH)
Yeast α-glucosidase
  inhibition at 1000 µM: 8.8 ± 1.3%
  IC50: > 1000 µM
Rat intestinal DPP-IV
  IC50: 142 ± 1.7 µM

## APFPE [APFPE]
Rat intestinal DPP-IV
  IC50: 49.5 ± 0.5 µM

## DKIHP (UniProt P02666 62-66, looked up, fragment) [β-casein f(47–51)]
[1]
  Bioactivity: ACE-inhibition: ACE-inhibition

## DKIHPF (UniProt P02666 62-67, looked up, fragment) [β-casein f(47–52)]
[1]
  Bioactivity: ACE-inhibition: ACE-inhibition

## DVPSERYLG [αS1-casein f(85–93)]
[1]
  Bioactivity: ACE-inhibition: ACE-inhibition

## EMPFPK (UniProt P02666 123-128, looked up, fragment) [β-casein f(108–113)]
[1]
  Bioactivity: ACE-inhibition: ACE-inhibition
[2]
  Bioactivity: Anti-microbial: Anti-microbial

## ENLLRF (UniProt P02662 33-38, looked up, fragment) [αS1-casein f(18–23)]
[1]
  Bioactivity: ACE-inhibition: ACE-inhibition

## FFVAP (UniProt P02662 38-42, looked up, fragment) [αS1-casein f(23–27)]
[1]
  Bioactivity: ACE-inhibition: ACE-inhibition

## FGK (UniProt P02662 47-49, looked up, fragment) [αS1-casein f(32–34)]
[1]
  Bioactivity: ACE-inhibition: ACE-inhibition

## FVAP (UniProt P02662 39-42, looked up, fragment) [αS1-casein f(24–27)]
[1]
  Bioactivity: ACE-inhibition: ACE-inhibition

## GTQY (UniProt P02662 185-187, looked up, fragment) [αS1-casein f(170–172)]
[1]
  Bioactivity: ACE-inhibition: ACE-inhibition
[3]
  Bioactivity: Antioxidant: Antioxidant

## IPPL (UniProt P02666 89-92, looked up, fragment) [β-casein f(74–77)]
DPP-IV
  Bioactivity: DPP-IV-inhibition: DPP-IV-inhibition
  IC50: 429 µM

## IPPLTQTPV [β-casein f(74–82)]
DPP-IV
  Bioactivity: DPP-IV-inhibition: DPP-IV-inhibition
  IC50: 465 µM

## IVP (UniProt P02662 86-88, looked up, fragment) [αS1-casein f(71–73)]
[1]
  Bioactivity: ACE-inhibition: ACE-inhibition

## LEE (UniProt P02666 18-20, looked up, fragment) [β-casein f(3–5)]
[1]
  Bioactivity: ACE-inhibition: ACE-inhibition

## LHLPLP (UniProt P02666 148-153, looked up, fragment) [β-casein f(133–138)]
[1]
  Bioactivity: ACE-inhibition: ACE-inhibition
  IC50 values against ACE: low
[4]
  effect on systolic blood pressure: powerful decreasing agents of systolic blood pressure

## LLY (UniProt P02666 206-208, looked up, fragment) [β-casein f(191–193)]
[3]
  Bioactivity: Antioxidant: Antioxidant
[5]
  Bioactivity: Anti-inflammatory: Anti-inflammatory
[6]
  Bioactivity: Immunomodulation: Immunomodulation

## LNF (UniProt P02663 176-178, looked up, fragment) [αS2-casein f(161–163)]
[1]
  Bioactivity: ACE-inhibition: ACE-inhibition

## LPLP (UniProt P02666 150-153, looked up, fragment) [β-casein f(135–138)]
[1]
  Bioactivity: ACE-inhibition: ACE-inhibition
  IC50 values against ACE: low
[4]
  effect on systolic blood pressure: powerful decreasing agents of systolic blood pressure

## LPQ
DPP-IV
  Bioactivity: DPP-IV-inhibition: DPP-IV-inhibition
  IC50: 82 µM

## LVYPFP (UniProt P02666 73-78, looked up, fragment) [β-casein f(58–63)]
[1]
  Bioactivity: ACE-inhibition: ACE-inhibition

## LVYPFPGP [β-casein f(58–65)]
[1]
  Bioactivity: ACE-inhibition: ACE-inhibition

## PEL (UniProt P02662 162-164, looked up, fragment) [αS1-casein f(147–149)]
[3]
  Bioactivity: Antioxidant: Antioxidant

## PFP (UniProt P02666 76-78, looked up, fragment) [β-casein f(61–63)]
α-glucosidase; ref BIOPEP database and Milk Bioactive Peptides Database
  Bioactivity: α-glucosidase inhibition: α-glucosidase inhibition
α-glucosidase; ref [53], read-out: IC50 α-glucosidase, previously reported
  IC50: 8600 µM
[1]
  Bioactivity: ACE-inhibition: ACE-inhibition

## PFPE (UniProt P02662 42-45, looked up, fragment) [αS1-casein f(27–30)]
[1]
  Bioactivity: ACE-inhibition: ACE-inhibition

## PGPIP (UniProt P02666 78-82, looked up, fragment) [β-casein f(63–67)]
[1]
  Bioactivity: ACE-inhibition: ACE-inhibition

## PGPIPN (UniProt P02666 78-83, looked up, fragment) [β-casein f(63–68)]
[1]
  Bioactivity: ACE-inhibition: ACE-inhibition
[5]
  Bioactivity: Anti-inflammatory: Anti-inflammatory
[6]
  Bioactivity: Immunomodulation: Immunomodulation

## PLW (UniProt P02662 212-214, looked up, fragment) [αS1-casein f(197–199)]
[1]
  Bioactivity: ACE-inhibition: ACE-inhibition

## QEPV (UniProt P02666 209-212, looked up, fragment) [β-casein f(194–197)]
[6]
  Bioactivity: Immunomodulation: Immunomodulation

## QGP (UniProt P02663 116-118, looked up, fragment) [αS2-casein f(101–103)]
[1]
  Bioactivity: ACE-inhibition: ACE-inhibition

## QGPIVLNPWDQVKR [αS2-casein f(101–114)]
[3]
  Bioactivity: Antioxidant: Antioxidant

## RELEEL (UniProt P02666 16-21, looked up, fragment) [β-casein f(1–6)]
[3]
  Bioactivity: Antioxidant: Antioxidant

## SLPQ (UniProt P02666 84-87, looked up, fragment) [β-casein f(69–72)]
[1]
  Bioactivity: ACE-inhibition: ACE-inhibition

## TEDELQDKIHPF [β-casein f(41–52)]
[2]
  Bioactivity: Anti-microbial: Anti-microbial

## TKVIPYVRYL [αS2-casein f(198–207)]
[2]
  Bioactivity: Anti-microbial: Anti-microbial

## TVY (UniProt P02663 197-199, looked up, fragment) [αS2-casein f(182–184)]
[1]
  Bioactivity: ACE-inhibition: ACE-inhibition

## VEP (UniProt P02666 131-133, looked up, fragment) [β-casein f(116–118)]
[1]
  Bioactivity: ACE-inhibition: ACE-inhibition

## VLP
[1]
  Bioactivity: ACE-inhibition: ACE-inhibition

## VVPP (UniProt P02666 98-101, looked up, fragment) [β-casein f(83–86)]
[1]
  Bioactivity: ACE-inhibition: ACE-inhibition

## VVPPF [VVPPF]
Yeast α-glucosidase
  inhibition at 1000 µM: 22 ± 1.3%
  IC50: > 1000 µM
Rat intestinal DPP-IV
  IC50: 699 ± 11.1 µM

## VVVPPF [VVVPPF]
Yeast α-glucosidase
  inhibition at 1000 µM: 22.5 ± 1%
  IC50: > 1000 µM
Rat intestinal DPP-IV
  IC50: 610 ± 13.6 µM

## WIQP (UniProt P02663 208-211, looked up, fragment) [αS2-casein f(193–196)]
DPP-IV
  Bioactivity: DPP-IV-inhibition: DPP-IV-inhibition
  IC50: 237 µM
[1]
  Bioactivity: ACE-inhibition: ACE-inhibition

## YLEQLLR [αS1-casein f(94–100)]
[2]
  Bioactivity: Anti-microbial: Anti-microbial

## YLG (UniProt P02662 106-108, looked up, fragment) [αS1-casein f(91–93)]
[3]
  Bioactivity: Antioxidant: Antioxidant

## YLGY (UniProt P02662 106-109, looked up, fragment) [αS1-casein f(91–94)]
[1]
  Bioactivity: ACE-inhibition: ACE-inhibition
[3]
  Bioactivity: Antioxidant: Antioxidant

## YQEP (UniProt P02666 208-211, looked up, fragment) [β-casein f(193–196)]
[1]
  Bioactivity: ACE-inhibition: ACE-inhibition

## YQEPVLGPVRGPFPIIV [β-casein f(193–209)]
[1]
  Bioactivity: ACE-inhibition: ACE-inhibition
[2]
  Bioactivity: Anti-microbial: Anti-microbial

## YQGPIVLNPWDQVKR [αS2-casein f(100–114)]
[1]
  Bioactivity: ACE-inhibition: ACE-inhibition
[2]
  Bioactivity: Anti-microbial: Anti-microbial
[6]
  Bioactivity: Immunomodulation: Immunomodulation

## YQL (UniProt P02662 169-171, looked up, fragment) [αS1-casein f(154–156)]
[3]
  Bioactivity: Antioxidant: Antioxidant
